According to US20250276029A1, “ANTIBACTERIAL AND ANTIOXIDANT COMPOSITION CONTAINING GRAPE CALLUS CULTURE MEDIUM AS ACTIVE INGREDIENT” (INGR INCORPORATED, priority 2021, published 2025):

Experiments:
[1] = test system: P. acnes 5012 (KCTC 5012); test: MIC for acne bacteria, P. acnes 5012; format: cell-based, Propionibacterium acnes; conditions: P. acnes 5012, 72 hours, anaerobic
Protocol: (§1) To confirm the antibacterial effect of grape callus culture solution on acne bacteria, Propionibacterium acnes (KCTC 3314, KCTC 3320, KCTC 5012) was cultured in RCM (Reinforced Clostridial Medium) at 37° C., anaerobic conditions. MIC is an index for measuring bacteriostatic characteristics of antibacterial substances, and after diluting the grape callus culture solution of the present invention to a concentration between […], the minimum concentration that inhibits the growth of three kinds of P. acnes was examined. Specifically, three kinds of P. acnes cultured in <3-1> were incubated in an incubator at 37° C. for 72 hours under anaerobic conditions in 5 ml of RCM liquid medium. In addition, a master plate was prepared at 8 concentrations by diluting ½ from the highest concentration to DW in 96 well plates. 50 μl of each diluted sample was then transferred to another 96-well plate. […] To measure the MIC, 0 hour OD600 nm was measured with a Microplate Reader. Then, after incubating the 96-well plate in 72-hour 37° C., incubation under anaerobic conditions, measuring OD600 nm for 72 hours with a Microplate Reader, subtracting the 0-hour OD value from the 72-hour OD value, the growth of three P. acnes according to control and sample concentration was compared, and antibacterial activity was confirmed through OD value comparison.

[2] = test system: P. acnes 3320 (KCTC 3320); test: MBC analysis for acne bacteria, P. acnes 3320; format: cell-based, Propionibacterium acnes; conditions: for MBC, concentration of highest growth inhibition effect: P. acnes 3320, 72-hour; for MBC, concentration of highest growth inhibitory effect: P. acnes 3320, 48 hr
Protocol: (§2) To confirm the antibacterial effect of grape callus culture solution on acne bacteria, Propionibacterium acnes (KCTC 3314, KCTC 3320, KCTC 5012) was cultured in RCM (Reinforced Clostridial Medium) at 37° C., anaerobic conditions. The Minimum Bactericidal Concentration (MBC) is an indicator measuring the bactericidal properties of an antibacterial substance, and the grape callus culture extract of the present invention was diluted to concentrations ranging […], and the minimum concentration inhibiting the growth of three strains of P. acnes was determined. Specifically, the minimum bactericidal concentration was measured using a plate measuring the MIC of <3-1>.

[3] = DPPH analysis (antioxidant effect); conditions: 500 μg/ml
Protocol: DPPH analysis was performed to confirm the antioxidant effect of grape callus culture solution. Specifically, 0.2 mM DPPH (1,1-Diphenyl-2-picryhydrazyl) solution was prepared using 80% methanol, and then 180 μl of DPPH and 20 μl of the sample were well mixed and reacted at room temperature for 10 minutes, and then absorbance was measured with an ELISA reader at 517 nm. On the other hand, the sample was diluted based on epsilon-Viniferin content and treated in a well for comparison with Viniferin. In addition, the control method used DPPH reagent in the dilution solvent of the sample instead of the sample. Ascorbic acid was treated as a positive control.

[4] = test system: P. acnes 5012 (KCTC 5012); test: MBC analysis for acne bacteria, P. acnes 5012; format: cell-based, Propionibacterium acnes; conditions: for MBC, concentration of highest growth inhibition effect: P. acnes 5012, 72-hour; for MBC, concentration of highest growth inhibitory effect: P. acnes 5012, 48 hr
Protocol: as §2

[5] = test system: P. acnes 3320 (KCTC 3320); test: MIC for acne bacteria, P. acnes 3320; format: cell-based, Propionibacterium acnes; conditions: P. acnes 3320, 72 hours, anaerobic
Protocol: as §1

[6] = test system: P. acnes 3314 (KCTC 3314); test: MIC for acne bacteria, P. acnes 3314; format: cell-based, Propionibacterium acnes; conditions: P. acnes 3314, 72 hours, anaerobic
Protocol: as §1

[7] = test system: P. acnes 3314 (KCTC 3314); test: MBC analysis for acne bacteria, P. acnes 3314; format: cell-based, Propionibacterium acnes; conditions: for MBC, concentration of highest growth inhibition effect: P. acnes 3314, 72-hour; for MBC, concentration of highest growth inhibitory effect: P. acnes 3314, 48 hr
Protocol: as §2

[8] = test system: Raw264.7 (murine macrophage); test: MTT assay cytotoxicity, Raw264.7 cells; format: cell-based; conditions: mouse, 24 h
Protocol: (§3) MTT assay was performed using MNT-1, Raw264.7 cells to confirm the cytotoxicity of grape callus cultures, epsilon-Viniferin and delta-Viniferin. Specifically, Raw264.7 (murine macrophage) was incubated at 37° C., 5% CO2 in DMEM (High glucose) medium with 10% FBS and 1% gentamicine added, and MNT-1 (human melanoma cell) was incubated at 37° C., 5% CO2 in DMEM/MEM (High glucose) medium with 20% FBS and 1% gentamicine added. MNT-1 (10^4 cell/well) and Raw264.7 (2×10^4 cell/well) were each incubated in 96 wells, the samples were diluted with medium and treated in each well. After 24 hours, the MTT solution was treated at a concentration of 100 μg/mL and reacted at 37° C., 5% CO2 incubator for 1 hour. All cultures were then removed, 100 μl of acid-isopropanol was added to each well, and absorbance was measured with an ELISA reader at 570 nm. In addition, the sample was diluted based on epsilon-Viniferin content and treated in a well for comparison with Viniferin.

P. acnes 3320 = test: Disc diffusion test; format: cell-based, Propionibacterium acnes; conditions: for clear zone diameter, 1: column 1; for clear zone diameter, 2: column 2
Protocol: The disc diffusion test is an antibacterial agent sensitivity test method of bacteria, and if there is an antibacterial effect, a clear zone is formed around the disk paper, and the antibacterial ability can be measured through the degree of clear zone formation. Specifically, P. acnes 3320 was incubated in 5 ml of RCM liquid medium in an incubator at 37° C. for 72 hours under anaerobic conditions. Then, the bacteria diluted with 5×10^5 1×10^6 were moistened with a cotton swab and evenly smeared on RCM agar medium. The disk paper was placed on an agar plate, the disk paper was moistened with a sample of the stock solution, and then incubated in a 72-hour 37° C. incubator under anaerobic conditions, and then the clear zone size was measured using a Vernier Caliper.

[9] = test system: MNT-1 (human melanoma cell); test: MTT assay cytotoxicity, MNT-1 cells; format: cell-based; conditions: 24 h
Protocol: as §3

Row | MIC, average concentration that inhibits growth [1] | MIC, average concentration that inhibits growth [5] | MIC, average concentration that inhibits growth [6] | SMILES | MBC, concentration of highest growth inhibition effect [2] | MBC, concentration of highest growth inhibitory effect [2] | radical scavenging activity (DPPH) compared to the control group [3] | MBC, concentration of highest growth inhibition effect [4] | MBC, concentration of highest growth inhibitory effect [4] | MBC, concentration of highest growth inhibition effect [7] | MBC, concentration of highest growth inhibitory effect [7] | concentration showing no cytotoxicity (MTT) [8] [ng/mL] | clear zone diameter, Average (P. acnes 3320; ε-viniferin 5 μg) [mm] | clear zone diameter, 1 (P. acnes 3320; ε-viniferin 5 μg) [mm] | clear zone diameter, 2 (P. acnes 3320; ε-viniferin 5 μg) [mm] | clear zone diameter, Average (P. acnes 3320; ε-viniferin 10 μg) [mm] | clear zone diameter, 1 (P. acnes 3320; ε-viniferin 10 μg) [mm] | clear zone diameter, 2 (P. acnes 3320; ε-viniferin 10 μg) [mm] | concentration showing no cytotoxicity (MTT) [9] [ng/mL]
1 | did not show growth inhibition | did not show growth inhibition | did not show growth inhibition | Oc1ccc(C2Oc3ccc(/C=C/c4cc(O)cc(O)c4)cc3C2c2cc(O)cc(O)c2)cc1 (stereo not drawn) [delta-Viniferin, trans-δ-Viniferin] | did not show growth inhibition | did not show growth inhibition | approximately 25% | did not show growth inhibition | did not show growth inhibition | did not show growth inhibition | did not show growth inhibition |  |  |  |  |  |  |  | 
2 | did not show growth inhibition | did not show growth inhibition | did not show growth inhibition | Oc1ccc(/C=C/c2cc(O)cc3c2C(c2cc(O)cc(O)c2)C(c2ccc(O)cc2)O3)cc1 (stereo not drawn) [epsilon-Viniferin, trans-ε-viniferin] | did not show growth inhibition | did not show growth inhibition | approximately 25% | did not show growth inhibition | did not show growth inhibition | did not show growth inhibition | did not show growth inhibition | ≤ 20000 | 0 | 0 | 0 | 0 | 0 | 0 | ≤ 20000
